In EPA's ToxValDB 9.5:

Experiments:
Rattus norvegicus [1] = system: Rattus norvegicus
Rattus norvegicus [2] = conditions: for LC50 / LD50: acute
[3] = reproduction developmental, inhalation, Wistar
[4] = short-term, duration: 28 days, oral, gavage, F, Sprague-Dawley, Clinical Observation: Salivation80 + Necropsy: Stomach-Thickening, limiting ridge Forestomach-Thickening, mucosa, focal + Histopathology: …
[5] = short-term, duration: 28 days, oral, gavage, M, Sprague-Dawley, Clinical Observation: Salivation80 + Necropsy: Stomach-Thickening, limiting ridge Forestomach-Thickening, mucosa, focal + Histopathology: …
[6] = subchronic, oral, gavage, M, Sprague-Dawley, Clinical Observation: Soiled perigenital region + Body Weight Changes: Weight gain decrease + Food Consumption: decrease(week 1) + Blood …
[7] = reproduction developmental, duration: 10 days, oral, gavage, F, Sprague-Dawley
[8] = subchronic, duration: 13 weeks, oral, diet
[9] = short-term; duration: 28 days; oral; gavage; M; Sprague-Dawley; Deaths/5) + Body Weight Changes: decrease + Food Consumption: decrease + Urinalysis: Urine volume decrease, Uosm increase + Hematology: MCH …

CCO[Si](CCCN)(OCC)OCC [3-Aminopropyltriethoxysilane]
NOAEL (Rattus norvegicus [1]; chronic, duration: 91 days, oral, gavage, M/F, CD(SD), Deaths + Clinical Observation: Rales Wet and/or dried material (red, yellow, brown and/or clear) on various body surfaces Abnormal excreta…): 200 mg/kg-day

[In] [Indium]
NOEL (Rattus norvegicus [1]; short-term, duration: 28 days, oral, gavage, Crj:CD): 1000 mg/kg-day

CCCC=NO [Butyraldehyde oxime]
NOEL (Rattus norvegicus [1]; subchronic, oral, gavage, M/F, Fischer 344, Deaths + Body Weight Changes: decrease + Urinalysis: Thiocyanate (I1/4mol/24 hr) increase, Thiocyanate/creatinine ratio increase, Creatinine…): < 25 mg/kg-day

CO[Si](C)(C)OC [Dimethoxydimethylsilane]
NOAEL (Rattus norvegicus [1]; short-term, duration: 29 days, oral, gavage, M/F, Sprague-Dawley, Deaths + Clinical Observation: Soiling of chin and urogenital area Soiling of muzzle + Absolute Organ Weight: Adrenal decrease, Liver …): 250 mg/kg-day

CC=CC [2-Butene]
LC50 (Rattus norvegicus [2]; inhalation, Wistar): > 22900 mg/m3 | LOAEL (Rattus norvegicus [2]; [3]): 11500 mg/m3 | NOAEL (Rattus norvegicus [2]; [3]): 5740 mg/m3

Nc1ccc([N+](=O)[O-])cc1Cl [2-Chloro-4-nitroaniline]
NOEL (Rattus norvegicus [1]; subchronic, oral, gavage, Sprague-Dawley): 100 mg/kg-day

C=C1C/C(=C/C)C(=O)O[C@@H]2CCN3CC=C(COC(=O)[C@@]1(O)CO)[C@H]23 [Riddelliine]
NOEL (Rattus norvegicus [1]; subchronic, oral, gavage, M/F, Fischer 344, Deaths + Body Weight Changes: decrease + Hematology: Ret increase Hct increase Hgb increase RBC increase Plt decrease, WBC increase Lymph …): < 0.1 mg/kg-day

COCCOCCOCCO [2-[2-(2-Methoxyethoxy)ethoxy]ethanol]
NOAEL (Rattus norvegicus [1]; chronic, duration: 91 days, oral, drinking water, M/F, Sprague-Dawley, Deaths + Body Weight Changes: Body weight gain decrease + Food Consumption: decrease + Water Consumption: decrease + Absolute Organ Weight: …): 400 mg/kg-day

Nc1nn[nH]n1 [Tetrazol-5-ylamine]
NOEL (Rattus norvegicus [1]; subchronic, oral, gavage, M, Sprague-Dawley, Blood Chemistry: BUN increase): 200 mg/kg-day

C=Cc1ccncc1 [4-Vinylpyridine]
LOEL (Rattus norvegicus [1]; [4]): 80 mg/kg-day | NOEL (Rattus norvegicus [1]; [4]): 40 mg/kg-day | LOEL (Rattus norvegicus [1]; [5]): 40 mg/kg-day | NOEL (Rattus norvegicus [1]; [5]): 20 mg/kg-day

N#CN=C(N)N [Cyanoguanidine]
NOAEL (Rattus norvegicus [1]; subchronic, duration: 44 days, oral, gavage, M, CD(SD)): 1000 mg/kg-day

O=S(=O)([O-])c1cccc2c(S(=O)(=O)[O-])cccc12.[Na+].[Na+] [1,5-Naphthalenedisulfonic acid, disodium salt]
NOEL (Rattus norvegicus [1]; subchronic, oral, gavage, M, Sprague-Dawley, Clinical Observation: Soft stool Diarrhea + Necropsy: Stomach/Forestomach-Elevation of limiting ridge Cecum-Enlargement + Histopathology: …): 40 mg/kg-day

O=C(O)C1CCC(c2ccc(Cl)cc2)CC1 (stereo not given)
NOEL (Rattus norvegicus [1]; short-term, duration: 28 days, oral, gavage, M/F, Deaths + Clinical Observation: Abnormal gait Lethargy Piloerection Ptosis + Blood Chemistry: GPT increase, ALP increase, TP increase, ALB …): < 12 mg/kg-day

CCCCCCC[CH2][Sn]([CH2]CCCCCCC)([S]CC(=O)OCCCCCC(C)C)[S]CC(=O)OCCCCCC(C)C [Dioctyltin-S,S'-bis(isooctylmercaptoacetate)]
NOAEL (Rattus norvegicus [1]; subchronic, duration: 13 weeks, oral, diet, Sprague-Dawley): 14.4 mg/kg-day

COc1cc(S(=O)(=O)CCOS(=O)(=O)O)c(OC)cc1N
NOEL (Rattus norvegicus [1]; short-term, duration: 28 days, oral, gavage, F, Blood Chemistry: Na increase + Relative Organ Weight: Liver increase, Kidney increase): 30 mg/kg-day

CC/C=C\C#N [(2Z)-2-Pentenenitrile]
LC50 (Rattus norvegicus [2]; inhalation, CRL:CD BR): 2820 mg/m3 | NOAEL (Rattus norvegicus [2]; short-term, duration: 28 days, inhalation, CRL:CD BR): 995 mg/m3 | NOAEL (Rattus norvegicus [2]; short-term, duration: 28 days, inhalation, F, CRL:CD BR): 9.95 mg/m3 | NOAEL (Rattus norvegicus [2]; short-term, duration: 28 days, inhalation, M, CRL:CD BR): 9.95 mg/m3

Cc1cccc(Cl)c1Cl [Benzene, 1,2-dichloro-3-methyl-]
NOAEL (Rattus norvegicus [1]; [6]): 200 mg/kg-day | NOEL (Rattus norvegicus [1]; [6]): < 50 mg/kg-day

CC1COCc2cc3c(cc21)C(C)(C)C(C)C3(C)C (stereo not given)
LOAEL (Rattus norvegicus [2]; [7]): 150 mg/kg-day | NOAEL (Rattus norvegicus [2]; [7]): 50 mg/kg-day | NOAEL (Rattus norvegicus [2]; reproduction developmental, duration: 10 days, oral, gavage, Sprague-Dawley, generation: F1): 150 mg/kg-day | NOAEL (Rattus norvegicus [2]; reproduction developmental, oral, gavage): 20 mg/kg-day | LOAEL (Rattus norvegicus [2]; [8]): 300 mg/kg-day | NOAEL (Rattus norvegicus [2]; [8]): 150 mg/kg-day

C=C[Si](C)(C)O[Si](C)(C)C=C [Divinyltetramethyldisiloxane]
NOAEL (Rattus norvegicus [1]; short-term, duration: 28 days, oral, gavage, M, CD(SD), Clinical Observation: Clear material around the mouth Red material around the mouth + Body Weight Changes: Mean body weight decrease, Weight…): < 50 mg/kg-day

O=S(=O)(c1ccc(Cl)cc1)c1ccc(Cl)cc1 [4,4'-Dichlorodiphenyl sulfone]
NOEL (Rattus norvegicus [1]; chronic, duration: 14 weeks, oral, diet, M/F, Fischer 344, Body Weight Changes: decrease + Food Consumption: decrease + Hematology: Hgb decrease, Plt increase + Blood Chemistry: TP increase, BUN …): < 2.34 mg/kg-day | NOAEL (Rattus norvegicus [1]; [9]): < 50 mg/kg-day | NOEL (Rattus norvegicus [1]; [9]): < 50 mg/kg-day

NCCCC1OCC2(CO1)COC(CCCN)OC2 (stereo not given) [2,4,8,10-Tetraoxaspiro[5.5]undecane-3,9-dipropanamine]
NOEL (Rattus norvegicus [1]; subchronic, oral, gavage, M, Sprague-Dawley, Clinical Observation: Locomotor activity decrease, Respiratory irregularity Prone position Salivation + Body Weight Changes: decrease1000…): < 40 mg/kg-day

O=C1CCCO1 [gamma-Butyrolactone]
NOEL (Rattus norvegicus [1]; subchronic, duration: 13 weeks, oral, gavage, M/F, Fischer 344, Clinical Observation: Slight inactivity Recumbent + Body Weight Changes: decrease + Absolute Organ Weight: Thymus decrease + Relative Organ …): 112 mg/kg-day

CCCCCCCCCCCCC(CO)CCCCCCCCCC (stereo not given) [1-Tetradecanol, 2-decyl-]
NOAEL (Rattus norvegicus [1]; subchronic, oral, gavage, M, Sprague-Dawley, Urinalysis: Occult blood + Hematology: PT increase, APTT increase + Blood Chemistry: LDH increase): 62.5 mg/kg-day

O=C/C=C/c1ccccc1 [(2E)-3-Phenylprop-2-enal]
NOEL (Rattus norvegicus [1]; chronic, duration: 14 weeks, oral, diet, F, Fischer 344, Body Weight Changes: decrease + Food Consumption: decrease + Hematology: Ret decrease, Plt decrease + Blood Chemistry: Bile acid increase, …): < 300 mg/kg-day | NOEL (Rattus norvegicus [1]; chronic, duration: 14 weeks, oral, diet, M/F, Fischer 344, Body Weight Changes: decrease + Food Consumption: decrease + Hematology: Ret decrease, Plt decrease + Blood Chemistry: Bile acid increase, …): < 320 mg/kg-day

CC(O)(P(=O)(O)O)P(=O)(O)O [Etidronic acid]
NOAEL (Rattus norvegicus [1]; subchronic, duration: 90 days, oral, diet, M/F, Body Weight Changes: decrease + Food Consumption: decrease + Hematology: RBC increase, HGB decrease, HCT decrease + Absolute Organ Weight: …): > 2880 mg/kg-day

CCCCC(CC)COC(=O)CS (stereo not given) [2-Ethylhexyl thioglycolate]
NOAEL (Rattus norvegicus [1]; short-term, duration: 28 days, oral, diet, M, Fischer 344, Hematology: WBC decrease Lymph decrease + Blood Chemistry: AST increase): 0.2%

CC(C)CCCCCCOC(=O)c1ccc(C(=O)OCCCCCCC(C)C)c(C(=O)OCCCCCCC(C)C)c1 [Triisononyl trimellitate]
LD50 (Rattus norvegicus [2]; oral, Sprague-Dawley): > 10000 mg/kg

Cc1cccc(C#N)c1 [3-Methylbenzonitrile]
LD50 (Rattus norvegicus [2]; oral, Sprague-Dawley): 3000 mg/kg
